This assay has as its target T1, human plasma protein factor Xa (Homo sapiens, UniProt P00742).
T1 construct: measure proteolytic activity of the enzyme (factor Xa); purchased Haematologic Technologies (Essex Junction, Vt.); host or cells: human plasma
In words: Factor Xa IC50 determination (cleavage of chromogenic substrate S-2765). The format is biochemical. Conditions: fXa 1 nM, S-2765 100 μM, Tris buffered saline pH 7.4, room temperature. A digest of the protocol: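 Human plasma factor Xa (1 nM) preincubated 5 min at room temperature with inhibitor (0.01 nM–10 μM final) in Tris-buffered saline pH 7.4 with CaCl2, BSA and 5% DMSO. S-2765 added at 100 μM; pNA release at 405 nm over 2 min; initial velocities fitted to four-parameter equation for IC50, duplicates.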

T1 sequence (P00742 235-488 limits assumed): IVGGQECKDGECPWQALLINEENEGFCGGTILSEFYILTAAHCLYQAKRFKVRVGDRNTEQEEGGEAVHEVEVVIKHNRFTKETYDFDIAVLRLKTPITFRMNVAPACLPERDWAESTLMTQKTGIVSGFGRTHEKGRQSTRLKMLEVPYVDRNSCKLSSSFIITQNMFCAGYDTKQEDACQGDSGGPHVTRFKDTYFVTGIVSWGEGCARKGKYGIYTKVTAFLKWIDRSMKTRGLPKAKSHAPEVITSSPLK
T1 sequence (P00742 41-179 partner limits assumed): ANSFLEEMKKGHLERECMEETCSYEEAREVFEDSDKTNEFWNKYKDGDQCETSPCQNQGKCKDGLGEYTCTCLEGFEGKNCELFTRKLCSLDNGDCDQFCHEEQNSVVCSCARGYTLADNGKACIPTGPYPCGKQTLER

In the case of `CN(C)C(=O)CC(NC(=O)Nc1ccc(Cl)cc1)C(=O)Nc1ccc(C2=NCCN2C)cc1` (stereo not drawn) [Example 63, N-[4-(1-methyl-4,5-dihydro-1H-imidazol-2-yl)phenyl]-2-dimethylaminocarbonylmethyl-2-(4-chlorophenylaminocarbonylamino)-acetamide], the IC50 (usually the concentration needed to halve the response being measured) was ≥ 500 nM.
As to `CN(C)C(=N)c1ccc(NC(=O)C(NC(=O)Nc2ccc(Cl)cc2)c2ccccc2I)cc1` (stereo not drawn) [Example 116, N-[4-(dimethylaminoimino)phenyl]-2-(2-iodophenyl)-2-(4-chlorophenylaminocarbonylamino)-acetamide], the IC50 was ≤ 100 nM.
Under `O=C(Nc1ccc(Cl)cc1)NC(C(=O)Nc1ccc(-c2ccncc2)cc1)c1ccccc1F` (stereo not drawn) [Example 49, N-[4-(pyridin-4-yl)phenyl]-2-(2-fluorophenyl)-2-(4-chlorophenylaminocarbonylamino)-acetamide] stands 100 to 500 nM.
Take `CN1CCN=C1c1ccc(NC(=O)C(NC(=O)Nc2ccc(Cl)cc2)c2ccsc2)cc1` (stereo not drawn) [Example 13, N-[4-(1-methyl-4,5-dihydro-1H-imidazol-2-yl)phenyl]-2-(3-thienyl)-2-(4-chlorophenylaminocarbonylamino)-acetamide]: the 50% inhibitory concentration (IC50) was ≤ 100 nM.
Under `O=C(Nc1ccc(Cl)cc1)NC(C(=O)Nc1ccc(-c2cccc[n+]2[O-])cc1)c1ccccc1SC(F)(F)F` (stereo not drawn) [Example 123, N-[4-(N-oxo-pyridin-2-yl)phenyl]-2-(2-trifluoromethylthiophenyl)-2-(4-chlorophenylaminocarbonylamino)-acetamide] stands ≤ 100 nM; under `N=C(c1ccc(NC(=O)C(NC(=O)Nc2ccc(Br)cc2)c2ccccc2F)cc1)N1CCCC1` (stereo not drawn) [Example 44], ≤ 100 nM.
With `CN1CCN=C1c1ccc(NC(=O)C(NC(=O)Nc2ccc(Cl)cc2)c2ccccc2SC(F)(F)F)cc1` (stereo not drawn) [Example 122, N-[4-(1-methyl-4,5-dihydro-1H-imidazol-2-yl)phenyl]-2-(2-trifluoromethylthiophenyl)-2-(4-chlorophenylaminocarbonylamino)-acetamide], the concentration for half-maximal inhibition (IC50) was ≤ 100 nM.
With `Cc1ccccc1C(NC(=O)Nc1ccc(Cl)cc1)C(=O)Nc1ccc(C(=O)N2CCCC2)cc1` (stereo not drawn) [Example 94, N-[4-(pyrrolidin-1-ylcarbonyl)phenyl]-2-(2-methylphenyl)-2-(4-chlorophenylaminocarbonylamino)-acetamide], the IC50 is ≤ 100 nM.
Under `O=C(Nc1ccc(Cl)cc1)N[C@@H](C(=O)Nc1ccc(-n2ccccc2=O)cc1)c1ccccc1` [Example 138, (2R) N-[4-(2-pyridon-1-yl)phenyl]-2-phenyl-2-(4-chlorophenylaminocarbonylamino)-acetamide] stands ≤ 100 nM; under `CN1CCCN(C2CCN(C(=O)[C@H](NC(=O)Nc3ccc(Cl)cc3)c3ccccc3)CC2)CC1` [Example 154, (2R) 4-(4-methylhomopiperazin-1-yl)piperidin-1-yl-2-phenyl-2-(4-chlorophenylaminocarbonylamino)-acetamide], 100 to 500 nM; under `CC#CCC(NC(=O)Nc1ccc(Cl)cc1)C(=O)Nc1ccc(-c2cccc[n+]2[O-])cc1` (stereo not drawn) [Example 131, N-[4-(N-oxo-pyridin-2-yl)phenyl]-2-(but-2-yn-1-yl)-2-(4-chlorophenylaminocarbonylamino)-acetamide], ≤ 100 nM.
With `CN1CCC(N2CCN(C(=O)C(NC(=O)Nc3ccc(Cl)cc3)c3ccccc3)CC2)CC1` (stereo not drawn) [Example 128], the IC50 is ≤ 100 nM.
Under `Cc1ccccc1C(NC(=O)Nc1ccc(Cl)cc1)C(=O)N1CCC(N2CCOCC2=O)CC1` (stereo not drawn) [Example 147, 4-(3-morpholinon-4-yl)piperidin-1-yl-2-(2-methylphenyl)-2-(4-chlorophenylaminocarbonylamino)-acetamide] stands 100 to 500 nM; under `O=C(Nc1ccc(Cl)cc1)NC(C(=O)Nc1ccc(-c2cccc[n+]2[O-])cc1)c1ccccc1F` (stereo not drawn) [Example 51, N-[4-(N-oxo-pyridin-2-yl)phenyl]-2-(2-fluorophenyl)-2-(4-chlorophenylaminocarbonylamino)-acetamide], ≤ 100 nM.
Under `O=C(Nc1ccc(Cl)cc1)NC(C(=O)NCC1CCNCC1)c1ccccc1F` (stereo not drawn) [Example 53, N-(piperidin-4-ylmethyl)-2-(2-fluorophenyl)-2-(4-chlorophenylaminocarbonylamino)-acetamide] stands ≥ 500 nM; under `CN1CCN=C1c1ccc(N2C(=O)CC(NC(=O)Nc3ccc(Cl)cc3)C2=O)cc1` (stereo not drawn) [Example 72, N-[4-(1-methyl-4,5-dihydro-1H-imidazol-2-yl)phenyl]-3-(4-chlorophenylaminocarbonylamino)-succinimide], 100 to 500 nM; under `Cc1ccccc1C(NC(=O)Nc1ccc(Cl)cc1)C(=O)Nc1ccc(-c2cccc[n+]2[O-])cc1` (stereo not drawn) [Example 88, N-[4-(N-oxo-pyridin-2-yl)phenyl]-2-(2-methylphenyl)-2-(4-chlorophenylaminocarbonylamino)-acetamide], ≤ 100 nM.
Under `N=C(c1ccc(NC(=O)C(NC(=O)Nc2ccc(Cl)cc2)c2ccccc2I)cc1)N1CCCC1` (stereo not drawn) [Example 117] stands ≤ 100 nM.
On to `COc1ccccc1C(NC(=O)Nc1ccc(Cl)cc1)C(=O)NCC1CCN(c2ccncc2)CC1` (stereo not drawn) [Example 108, N-[1-(pyridin-4-yl)piperidin-4-yl]methyl-2-(2-methoxyphenyl)-2-(4-chlorophenylaminocarbonylamino)-acetamide], for which the IC50 is ≤ 100 nM.
For `CN(C)C(=N)c1ccc(NC(=O)C(NC(=O)Nc2ccc(Cl)cc2)c2ccccc2Cl)cc1` (stereo not drawn) [Example 100, N-[4-(dimethylaminoimino)phenyl]-2-(2-chlorophenyl)-2-(4-chlorophenylaminocarbonylamino)-acetamide], the IC50 is ≤ 100 nM.
Under `CN1CCN=C1c1ccc(NC(=O)C2(NC(=O)Nc3ccc(Cl)cc3)CC2)cc1` [Example 15, N-[4-(1-methyl-4,5-dihydro-1H-imidazol-2-yl)phenyl]-1-(4-chlorophenylaminocarbonylamino)-1-cyclopropanecarboxamide] stands 100 to 500 nM.
Under `CCN(C)C(=N)c1ccc(NC(=O)C(NC(=O)Nc2ccc(Cl)cc2)c2ccccc2)cc1` (stereo not drawn) [Example 24, N-[4-(N-methyl-N-ethylaminoimino)phenyl]-2-phenyl-2-(4-chlorophenylaminocarbonylamino)-acetamide] stands ≤ 100 nM.
Under `CN1CCC(C2CCN(C(=O)[C@H](NC(=O)Nc3ccc(Cl)cc3)c3ccccc3)CC2)CC1` [Example 155, (2R) 4-(1-methylpiperidin-4-yl)piperidin-1-yl-2-phenyl-2-(4-chlorophenylaminocarbonylamino)-acetamide] stands ≤ 100 nM; under `O=C(Nc1ccc(Cl)cc1)NC(C(=O)N1CCC(N2CCOCC2=O)CC1)c1ccccc1Cl` (stereo not drawn) [Example 145, 4-(3-morpholinon-4-yl)piperidin-1-yl-2-(2-chlorophenyl)-2-(4-chlorophenylaminocarbonylamino)-acetamide], ≤ 100 nM.
For `COc1ccccc1C(NC(=O)Nc1ccc(Cl)cc1)C(=O)N1CCC(N2CCN(C)CC2=O)CC1` (stereo not drawn) [Example 151, 4-(4-methyl-2-piperazinon-1-yl)piperidin-1-yl-2-(2-methoxyphenyl)-2-(4-chlorophenylaminocarbonylamino)-acetamide], the IC50 is ≥ 500 nM.
As to `O=C(Nc1ccc(Cl)cc1)NC(C(=O)Nc1ccc(-c2cccc[n+]2[O-])cc1)c1ccccc1OC(F)(F)F` (stereo not drawn) [Example 121, N-[4-(N-oxo-pyridin-2-yl)phenyl]-2-(2-trifluoromethoxyphenyl)-2-(4-chlorophenylaminocarbonylamino)-acetamide], the half-inhibitory concentration (IC50) is ≤ 100 nM.
Under `CNC(=O)CC(NC(=O)Nc1ccc(Cl)cc1)C(=O)Nc1ccc(C2=NCCN2C)cc1` (stereo not drawn) [Example 70, N-[4-(1-methyl-4,5-dihydro-1H-imidazol-2-yl)phenyl]-2-(methylamino-carbonylmethyl)-2-(4-chlorophenylaminocarbonylamino)-acetamide] stands 100 to 500 nM.
Under `O=C(Nc1ccc(Cl)cc1)NC(C(=O)NCC1CCN(c2ccncc2)CC1)c1ccccc1Cl` (stereo not drawn) [Example 105, N-[1-(pyridin-4-yl)piperidin-4-yl]methyl-2-(2-chlorophenyl)-2-(4-chlorophenylaminocarbonylamino)-acetamide] stands ≤ 100 nM.
Under `CN1CCN=C1c1ccc(NC(=O)C(CC(=O)N2CCCCC2)NC(=O)Nc2ccc(Cl)cc2)cc1` (stereo not drawn) [Example 64, N-[4-(1-methyl-4,5-dihydro-1H-imidazol-2-yl)phenyl]-2-(piperidin-1-ylcarbonylmethyl)-2-(4-chlorophenylaminocarbonylamino)-acetamide] stands ≥ 500 nM.
For the compound `CN1CCN=C1c1ccc(NC(=O)C(CC(C)(C)C)NC(=O)Nc2ccc(Cl)cc2)cc1` (stereo not drawn) [Example 4, N-[4-(1-methyl-4,5-dihydro-1H-imidazol-2-yl)phenyl]-2-(2,2-dimethylpropyl)-2-(4-chlorophenylaminocarbonylamino)-acetamide], the IC50 was ≥ 500 nM.
As to `CN1CCN=C1c1ccc(NC(=O)C(CC(=O)N2CCCC2)NC(=O)Nc2ccc(Cl)cc2)cc1` (stereo not drawn) [Example 66, N-[4-(1-methyl-4,5-dihydro-1H-imidazol-2-yl)phenyl]-2-(pyrrolidin-1-yl-carbonylmethyl)-2-(4-chlorophenylaminocarbonylamino)-acetamide], the concentration for half-maximal inhibition (IC50) was ≥ 500 nM.
Under `C=CCC(NC(=O)Nc1ccc(Cl)cc1)C(=O)Nc1ccc(-c2cccc[n+]2[O-])cc1` (stereo not drawn) [Example 133, N-[4-(N-oxo-pyridin-2-yl)phenyl]-2-allyl-2-(4-chlorophenylaminocarbonylamino)-acetamide] stands ≤ 100 nM.
Under `C=CCC(NC(=O)Nc1ccc(Cl)cc1)C(=O)Nc1ccc(C2=NCCN2C)cc1` (stereo not drawn) [Example 132, N-[4-(1-methyl-4,5-dihydro-1H-imidazol-2-yl)phenyl]-2-allyl-2-(4-chlorophenylaminocarbonylamino)-acetamide] stands ≤ 100 nM.

The values above are taken from patent US7678913B2, “Ureas as factor Xa inhibitors” (Portola Pharmaceuticals, Inc., priority 2004, dated 2010).
